Results as given in US7169559B2, “LDL receptor-related proteins 1 and 2 and treatment of bone or cartilage conditions” (Fonterra Corporate Research and Development Ltd., priority 2002, dated 2007).

Assays:
[1] = system: cultured osteoblastic cells; experiment: osteoblast proliferation (mitogenic/osteogenic effect); format: cell-based, rat, mouse, and human
Procedure: Osteoblasts were isolated from 20-day old fetal rat calvariae as previously described (Cornish et al. (1999) Amer. J. Physiol-Endocrinol. Metab. 277:E779–E783). Briefly, calvariae were excised and the frontal and parietal bones, free of suture and periosteal tissue, were collected. After washing, the calvariae were treated twice with 3 mL of 1 mg/mL collagenase for 7 minutes at 37° C. After discarding the supernatants from these two digestions, the calvariae were treated a further twice with 3 mL of 2 mg/mL collagenase (30 mins, 37° C.). The supernatants of the latter two digestions were pooled, centrifuged, and the cells washed. Cells were grown to confluence and then subcultured into 24 well plates. Cells were growth arrested in minimum essential medium (MEM)/0.1% bovine serum albumin for 24 h before harvest.
The human osteoblast-like osteosarcoma cell line SaOS-2 was maintained in DMEM (GIBCO 12100-046) supplemented with 2.2 g/L NaHCO3, 10% FBS, and 10 ml/L penicillin-streptomycin (GIBCO 15140-122). Cells were plated in 75 cm^2 flasks and when confluent used for total RNA isolation or proliferation assays.

bacterial = conditions: cited from earlier work

Substance	osteogenic effect / osteogenic activity [1]	bacterial killing (bacterial)	mitogenic effect on osteoblasts [1]
Lactoferricin	only a modest osteogenic effect	effective in bacterial killing	
Transferrin: Transferrin, compared with lactoferrin as mitogen on osteoblasts [reference compound]			not a potent mitogen
